According to patent US20060128605A1, “Preventives/remedies for snore or respiratory disturbances during sleep” (AJINOMOTO CO. INC, priority 2003, published 2006):

How the values were obtained:
[1] = tested on: snoring of the test recipient during sleep; assay: snoring evaluation by a family member after tablets taken before bedtime; format: in vivo, human; settings: Experiment 1
Procedure: (§1) In addition, sleep apnea and arterial blood oxygen saturation (SpO2) were evaluated using a sleep tester LT-200 manufactured by FUKUDA DENSHI Co., Ltd. (Japan). […] The test recipient was completely free of regular medication, and had no habit of taking nutritional supplements or nutritional supports. […] The test recipient took an appropriate number (2-4) of the glycine tablets or the control tablets, and interviewed a family member the next morning as to the presence or absence of snoring and the level thereof, without informing the family member of the kind of the tablets and whether they took the tablets.
The presence or absence of snoring during sleep was evaluated the next morning by a family member into three levels of minus (−; snoring was not heard or like sleep breath), plus (+; medium level snoring), two plus (++; extremely noisy and severe snoring). The presence or absence of snoring when the glycine tablets and control tablets were taken before bedtime, and nothing was taken before bedtime was counted.

[2] = tested on: sleep apnea and SpO2 decrease during sleep; settings: Experiment 3, glycine tablets (4 tablets) before bedtime
Procedure: as §1
The arterial blood oxygen saturation (SpO2) and air flow in the mouth-nose during sleep were measured using a sleep tester LT-200 manufactured by FUKUDA DENSHI Co., Ltd. The arterial blood oxygen saturation (SpO2) was measured using a sensor attached to the tip of the second finger of the left hand, and a decrease in the arterial blood oxygen saturation (SpO2) to not more than 93% which lasted for not less than 10 seconds was taken as SpO2 decrease. The number of SpO2 decrease per one day and per one hour and the minimum SpO2 of one day were determined. The air flow in the mouth-nose part was measured by a thermocapsule method, and a decrease in the flow in the mouth-nose part to not more than 50% which lasted for not less than 10 sec was defined as hypopnea. The occurrence of SpO2 decrease along with hypopnea was counted as apnea and the number of apnea per one day and per one hour was determined. Simultaneously, tracheal sounds during sleep were picked up through a mike set near laryngeal prominence.
The sleep apnea suppressing effect of glycine was evaluated. […] Tracheal sounds during sleep, which is considered to reflect the snoring sound, were simultaneously recorded.

[3] = tested on: male adults having sleep apnea syndrome; settings: glycine 3 g 1 hour before sleep
Procedure: For confirmation of the effect of glycine on respiratory disorders during sleep, a double blind crossover test was performed with 10 male adults having sleep apnea syndrome as evidenced by more than 5 of the following AHI (apnea hypopnea index per 1 hour). Glycine (3 g) was administered 1 hour before sleep and, as the placebo, maltose adjusted to an indistinguishable taste was used.
Sleep polygraph data such as electroencephalogram, electromyogram, arterial blood oxygen saturation, and the like during sleep were measured using the Alice system manufactured by Respironics Co., Ltd. (USA). The air flow of the mouth-nose part was measured, and hypopnea was defined to mean a state where a decrease to not more than 50% requires not less than 10 second to recover to not less than 60%. Furthermore, a decrease in the arterial blood oxygen saturation by not less than 3% associated with hypopnea was taken as apnea. The total of the incidents of apnea and hypopnea per 1 hour was taken as an apnea hypopnea index (AHI) and used as a severity index of respiratory disorder during sleep.

[4] = tested on: sleep apnea syndrome; settings: animal experiments using rats; cited from earlier work
[5] = 2 glycine tablets (glycine 490 mg) before bedtime, 9 days of observation
[6] = 4 glycine tablets (glycine 980 mg) before bedtime, 8 days of observation
[7] = SpO2 not more than 93% for not less than 10 seconds

SMILES: NCC(=O)O [glycine]
- snoring evaluation results ++, number of days (severe snoring) [1, 5]: 2 days
- snoring evaluation results ++, percentage of total observation days [1, 5]: (22%)
- snoring evaluation results +, number of days (medium level snoring) [1, 5]: 3 days
- snoring evaluation results +, percentage of total observation days [1, 5]: (33%)
- snoring evaluation results −, number of days (snoring not heard or like sleep breath) [1, 5]: 4 days
- snoring evaluation results −, percentage of total observation days [1, 5]: (44%)
- snoring evaluation results ++, number of days (severe snoring) [1, 6]: 0 days
- snoring evaluation results ++, percentage of total observation days [1, 6]: (0% a))
- snoring evaluation results +, number of days (medium level snoring) [1, 6]: 2 days
- snoring evaluation results +, percentage of total observation days [1, 6]: (25%)
- snoring evaluation results −, number of days (snoring not heard or like sleep breath) [1, 6]: 6 days
- snoring evaluation results −, percentage of total observation days [1, 6]: (75%)
- SpO2 lowest value during sleep [2]: 88 ± 1%
- apnea (times/day) [2]: 11 ± 4 times/day
- apnea (times/hr) [2]: 1.9 ± 0.9 times/hr
- SpO2 decrease (times/day) [2, 7]: 14 ± 5 times/day
- SpO2 decrease (times/hr) [2, 7]: 2.5 ± 1.2 times/hr
- average value of AHI, test recipients of 40 years old or over with BMI exceeding 28 ([3]; 4 cases, placebo 18.9 (p=0.046)): 10.6
- average value of AHI, test recipients of 40 years old or over ([3]; 6 cases, entire sleep stage, placebo 17.2 (p=0.062)): 11.5
- respiratory disorder (hypopnea or apnea, AHI) in the early stage of sleep ([3]; early stage of sleep (3 hours), FIG. 4 right graph): improved
- average value of AHI, nonrem sleep stage (NREM) ([3]; entire sleep stage, 10 male adults, placebo 11.3): 10.8
- average value of AHI, entire period (Total) of rem and nonrem sleep stage ([3]; entire sleep stage, 10 male adults, placebo 15.0): 13.4
- average value of AHI, rem sleep stage (REM) ([3]; entire sleep stage, 10 male adults, placebo 33.5): 26.8

SMILES: Nc1nc2ccc(OC(F)(F)F)cc2s1 [riluzole]
- effectiveness for the treatment of sleep apnea syndrome [4]: has been confirmed
